Data on 4 molecules can be found in PMC5770336, “Characterisation of endogenous A2A and A2B receptor-mediated cyclic AMP responses in HEK 293 cells using the GloSensor™ biosensor: Evidence for an allosteric mechanism of action for the A2B-selective antagonist PSB 603” (Biochemical Pharmacology, 2018).

Assay [1] has as its target T1, A2BAR (Homo sapiens, UniProt P29275).
T1 construct: Gs-coupled A2BARs endogenously expressed in HEK293 cells; host or cells: HEK293G (HEK293 stably expressing the GloSensor 20F cAMP biosensor)
T1 sequence (P29275 1-332): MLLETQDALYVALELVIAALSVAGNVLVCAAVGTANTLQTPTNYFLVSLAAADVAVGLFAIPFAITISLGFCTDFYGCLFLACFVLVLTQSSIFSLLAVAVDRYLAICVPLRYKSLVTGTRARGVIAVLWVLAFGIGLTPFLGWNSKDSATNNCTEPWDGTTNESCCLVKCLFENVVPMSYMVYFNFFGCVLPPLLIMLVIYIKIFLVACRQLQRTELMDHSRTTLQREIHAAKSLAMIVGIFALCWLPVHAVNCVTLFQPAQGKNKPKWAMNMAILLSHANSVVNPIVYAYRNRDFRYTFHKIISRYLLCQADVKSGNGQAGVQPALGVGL
In words: GloSensor cAMP luminescence assay in HEK293G cells, endogenous A2BAR-mediated responses (NECA, adenosine, BAY 60-6583). Type of assay: cell-based. Conditions: for antagonism of the response to BAY 60-6583 (in words): 1 μM BAY 60-6583; for mode of antagonism (in words): agonist concentration-response curves with increasing antagonist; for IC50 / pIC50 / inhibition of the response to 10 µM NECA (in words): 30 min pre-incubation; for -Log KB / Kb: apparent KB, modified Gaddum equation; for inhibition of the response to 10 µM NECA (in words): antagonist up to 10 µM. How it is done:
(§1) The cAMP GloSensor™ (20F) biosensor [26] expressed in HEK293 (HEK293G) cells was obtained from Promega (Madison, WI). HEK293G cells were maintained in Dulbecco modified eagles medium (DMEM) supplemented with 2 mM L-glutamine, 10% FCS (fetal calf serum) and 200 μg/ml hygromycin B at 37 °C 5% CO2. […] For the GloSensor™ assay, cells were re-suspended in DMEM supplemented with 2 mM L-glutamine and 10% FCS and seeded at a density of 35000 cells/well on poly-l-lysine treated clear bottomed white walled 96 well plates. Cells were incubated at 37°C 5% CO2 overnight prior to assay.
(§2) The GloSensor™ assay was carried out as per manufacturer’s instructions (Promega, Madison, WI, USA). […] Agonist concentration response curves were simultaneously obtained (in the absence of antagonist).

Assay [2] has as its target T2, A2AAR (Homo sapiens, UniProt P29274).
T2 construct: We also provide evidence for a minor population of endogenous A2AAR in this cell line; host or cells: HEK293G (HEK293 stably expressing the GloSensor 20F cAMP biosensor)
In words: GloSensor cAMP luminescence assay in HEK293G cells, endogenous A2AAR-mediated responses (CGS 21680). Type of assay: cell-based. The protocol:
as §1, §2

Assay [3] concerns the target A2BAR. The settings on record: cited from earlier work.
For assay [4], the system named is adenylyl cyclase. Description: Forskolin-stimulated GloSensor cAMP luminescence in HEK293G cells. Type of assay: cell-based, human. The settings on record: forskolin concentration-response curves, PSB 603 up to 300 nM. How it is done:
The cAMP GloSensor™ (20F) biosensor [26] expressed in HEK293 (HEK293G) cells was obtained from Promega (Madison, WI). HEK293G cells were maintained in Dulbecco modified eagles medium (DMEM) supplemented with 2 mM L-glutamine, 10% FCS (fetal calf serum) and 200 μg/ml hygromycin B at 37 °C 5% CO2. Once confluent, cells were dislodged from the flask surface by gentle shaking after incubation in 0.25% trypsin and cell pellet formed following 5 min 1000 g centrifugation. For the GloSensor™ assay, cells were re-suspended in DMEM supplemented with 2 mM L-glutamine and 10% FCS and seeded at a density of 35000 cells/well on poly-l-lysine treated clear bottomed white walled 96 well plates. Cells were incubated at 37°C 5% CO2 overnight prior to assay.
The GloSensor™ assay was carried out as per manufacturer’s instructions (Promega, Madison, WI, USA).

For assay [5], the target named is A2AAR. The settings on record: cited from earlier work.
The mark [6] stands for this setting: antagonism of BAY 60-6583 (1 µM) response, HEK293G.
Setting [7] is: antagonism of NECA (10 µM) response, HEK293G.
Where [8] appears, read: antagonism of adenosine (10 µM) response, HEK293G.

“And” between values parts separate entries of the source, which are not always exact repeats. Equal values may be shown once. “Also recorded” adds a separate entry of the source. Read-outs that look alike come from different tables or passages of the source.

T2 sequence (P29274 whole entry): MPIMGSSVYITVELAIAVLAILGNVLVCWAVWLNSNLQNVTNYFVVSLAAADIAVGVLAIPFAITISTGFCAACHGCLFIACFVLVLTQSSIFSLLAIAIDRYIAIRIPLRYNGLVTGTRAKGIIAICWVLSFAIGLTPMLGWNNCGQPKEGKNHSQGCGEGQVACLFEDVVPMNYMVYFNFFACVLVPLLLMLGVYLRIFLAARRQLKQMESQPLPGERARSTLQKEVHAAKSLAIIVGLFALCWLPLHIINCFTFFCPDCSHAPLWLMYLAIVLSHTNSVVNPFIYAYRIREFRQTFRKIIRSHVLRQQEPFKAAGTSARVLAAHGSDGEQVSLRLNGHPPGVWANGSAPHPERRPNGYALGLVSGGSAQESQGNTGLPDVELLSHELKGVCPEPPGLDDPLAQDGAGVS

As to `N#Cc1c(N)nc(SCC(N)=O)c(C#N)c1-c1ccc(OCC2CC2)cc1` [BAY 60-6583, 2-[[6-Amino-3,5-dicyano-4-[4-(cyclopropylmethoxy)phenyl]-2-pyridinyl]thio]-acetamide], the EC50 (in general, the midpoint of the concentration-response curve) in assay [1] (BAY 60-6583 pEC50, PSB 603 0 nM) is 407 nM; in assay [1] (BAY 60-6583 pEC50, PSB 603 30 nM), 1580 nM; in assay [1] (BAY 60-6583 pEC50, PSB 603 100 nM), 4570 nM; in assay [1] (BAY 60-6583 pEC50, PSB 603 300 nM) it was above 30000 nM; in assay [1] (BAY 60-6583 pEC50, XAC 0 nM) it was 380 nM; in assay [1] (BAY 60-6583 pEC50, XAC 100 nM) it was 1320 nM. In addition, the 50% effective concentration (EC50) in assay [1] (BAY 60-6583 pEC50, XAC 300 nM) was 2240 nM; in assay [1] (BAY 60-6583 pEC50, XAC 1000 nM) it was 9330 nM; in assay [1] (BAY 60-6583 pEC50, ZM 241385 0 nM), 347 nM; in assay [1] (BAY 60-6583 pEC50, ZM 241385 100 nM), 1410 nM; in assay [1] (BAY 60-6583 pEC50, ZM 241385 300 nM) it was 2140 nM; in assay [1] (BAY 60-6583 pEC50, ZM 241385 1000 nM), 7240 nM. Besides, the 50% effective concentration (EC50) in assay [1] (agonist pEC50, cAMP Glosensor luminescence, peak luminescence, HEK 293 cells, no antagonist (Fig. 4)) was 646 nM. For the same molecule, in assay [1] (HEK293G, read-out: BAY 60-6583 Emax, PSB 603 30 nM, percentage of response to 10 µM BAY 60-6583), the Emax (in general, the maximal effect, on the per cent scale that the assay sets) at 0.03 µM amounted to 82.2 ± 1.64%. The maximum response (Emax) at 0.1 µM was found to be 68.7 ± 6.78% in assay [1] (HEK293G, read-out: BAY 60-6583 Emax, PSB 603 100 nM, percentage of response to 10 µM BAY 60-6583) and 99 ± 7.14% in assay [1] (HEK293G, read-out: BAY 60-6583 Emax, ZM 241385 100 nM, percentage of response to 10 μM BAY 60-6583). The maximal effect (Emax) at 0.3 µM in assay [1] (HEK293G, read-out: BAY 60-6583 Emax, PSB 603 300 nM, percentage of response to 10 µM BAY 60-6583) was 99.3 ± 26.6%; in assay [1] (HEK293G, read-out: BAY 60-6583 Emax, ZM 241385 300 nM, percentage of response to 10 μM BAY 60-6583), 80.8 ± 8.36%. For the same molecule, the Emax came out at 104 ± 5.27% in assay [1] (HEK293G, read-out: BAY 60-6583 Emax, XAC 0 nM, percentage of response to 10 μM BAY 60-6583); 96.6 ± 4.8% in assay [1] (HEK293G, read-out: BAY 60-6583 Emax, XAC 100 nM, percentage of response to 10 μM BAY 60-6583); 85.6 ± 5.04% in assay [1] (HEK293G, read-out: BAY 60-6583 Emax, XAC 300 nM, percentage of response to 10 μM BAY 60-6583); 55.9 ± 7.86% in assay [1] (HEK293G, read-out: BAY 60-6583 Emax, XAC 1000 nM, percentage of response to 10 μM BAY 60-6583). Further, in assay [1] (HEK293G, read-out: BAY 60-6583 Emax, ZM 241385 1000 nM, percentage of response to 10 μM BAY 60-6583), the Emax at 1 µM is 54.1 ± 8.41%. Also, the “BAY 60-6583 Emax” value in assay [1] (PSB 603 0 nM, percentage of response to 10 µM BAY 60-6583) came to 104.40 ± 5.14%; in assay [1] (ZM 241385 0 nM, percentage of response to 10 μM BAY 60-6583) it was 100.80 ± 4.61%. Besides, the “agonist efficacy (in words)” value in assay [1] (relative to adenosine and NECA, HEK293G) is “partial agonist”.
In the case of `CCCn1c(=O)[nH]c2nc(-c3ccc(S(=O)(=O)N4CCN(c5ccc(Cl)cc5)CC4)cc3)[nH]c2c1=O` [PSB 603], in assay [2] (1 μM CGS 21680, competition curves), the “antagonism of the CGS 21680 response (in words)” value is “unable to inhibit; also recorded: not affected”. Further, the “effect of pre-incubation on CGS 21680 concentration-response curves (in words)” value in assay [2] (PSB 603 up to 300 nM) is given as “did not affect; also recorded: completely unaffected”. In addition, in assay [1], the “antagonism of the response to BAY 60-6583 (in words)” value is “completely abolish the response”. Also, in assay [1] (10 µM NECA, % of the maximal response to NECA), the “maximal inhibition of the NECA response” value was 81.7 ± 2.4% and 80%. In assay [1] (10 µM antagonist), the “inhibition of the response to 10 µM adenosine” value is 80.5 ± 3.0% and 80%. The “mode of antagonism (in words)” value in assay [1] is given as “non-competitive antagonism”. Also, the IC50 – broadly, the concentration needed to halve the response being measured – in assay [1] (setting [6]) was 17.4 nM; in assay [1] (setting [7]), 49.8 nM; in assay [1] (setting [8]), 141 nM. Further, the pIC50 (in general, the IC50 on a negative log10 scale, so that one unit is a factor of ten) in assay [1] (setting [6]) came to 7.86 ± 0.13; in assay [1] (setting [7]), 7.53 ± 0.22; in assay [1] (setting [8]), 7.56 ± 0.43. Moreover, the figures for the “-Log KB” value in assay [1] (agonist BAY 60-6583 (1 µM)), in assay [1] (agonist NECA (10 µM)) and in assay [1] (agonist adenosine (10 µM)) were 8.55 ± 0.13, 8.50 ± 0.22 and 7.89 ± 0.43, respectively. For the same molecule, the values for the Kb in assay [1] (agonist BAY 60-6583 (1 µM)), in assay [1] (agonist NECA (10 µM)) and in assay [1] (agonist adenosine (10 µM)) were 3.6 nM, 5.3 nM and 66.3 nM, respectively. The “residual peak response to NECA” value in assay [1] (limiting level of antagonism, kinetic profile, 10 μM NECA) is reported as “circa 20%”. Also, the inhibition constant (Ki) – broadly, a dissociation constant, usually derived from enzyme kinetics or from competition with a known ligand – in assay [3] was 0.5 nM; in assay [5] it was above 10000 nM. For the same molecule, the “effect of pre-incubation on the response to forskolin (in words)” value in assay [4] is given as “did not affect; also recorded: completely unaffected”.
As to `Nc1nc2c(cnn2CCc2ccccc2)c2nc(-c3ccco3)nn12` [SCH 58261, 2-(2-Furanyl)-7-(2-phenylethyl)-7H-pyrazolo [4,3-e][1,2,4] triazolo[1,5-c]pyrimidin-5-amine], the “antagonism of the CGS 21680 response (in words)” value in assay [2] is given as “complete concentration-dependent antagonism”. In addition, in assay [1], the “antagonism of the response to BAY 60-6583 (in words)” value was “weak antagonist” and the “inhibition of the response to 10 µM NECA (in words)” value was “failed to inhibit”. Besides, the “inhibition of the adenosine response” value in assay [1] (highest concentration tested, not statistically significant) is listed as “approximately 35%”. Besides, in assay [3], the Ki was 5010 nM.
For the molecule `Nc1nc(NCCc2ccc(O)cc2)nc2nc(-c3ccco3)nn12` [ZM 241385, 4-(2-[7-Amino-2-(2-furyl)[1,2,4]triazolo[2,3-a][1,3,5]triazin-5-ylamino]ethyl)phenol], in assay [1], the “inhibition of the response to 10 µM NECA (in words)” value is listed as “complete inhibition” and the “mode of antagonism (in words)” value is “competitive interaction”.
